Laboratory results as given in patent US6255324A, “Amino-and mercurio-substituted 4',5'-dihydropsoralens and therapeutical uses thereof” (priority 1998, dated 2001).
Counter-ions that a name gives are not always drawn. Like-named read-outs stand apart in the source and are kept apart here.

Key:
[1] = tested on: PAM 212 keratinocytes; experiment: PAM 212 keratinocyte growth inhibition (photo-toxicity with UVA / dark-toxicity without light); type: cell-based; conditions: UVA 320-400 nm, 1.28 J/cm2, growth 4-5 days
Protocol: Representative examples of the compounds described and claimed herein were tested in this assay for biological activity and found to be potent inhibitors of cell growth. Inhibition of cell growth was rapid, dependent on concentration, and required light activation. […] A description of this assay follows.
The photobiological activity was assayed using a keratinocyte cell line grown in a monolayer culture. In this assay, PAM 212 keratinocytes were grown in Dulbecco's Modified Eagle's medium supplemented with 10% newborn calf serum in a 5% carbon dioxide incubator. Cells were inoculated into 6-well Falcon plastic culture dishes at 25,000 cells per well. After 24 hours, the medium was charged to fresh growth medium supplemented with increasing concentrations of the test compounds or the control medium. Controls and test concentrations were analyzed in triplicate.
These plates were then incubated in a 37 degree C. carbon dioxide incubator. After 30 minutes culture plates were exposed to UVA light (UVA, 320-400 nm) emitted from a bank of four BLB fluorescent light tubes (F40 BL, Sylvania) placed approximately 10 cm above the cell culture plates. The incident light on the culture plates was 2.4 mW/cm^2 as measured with an International Light UV radiometer, Model IL 442A. The cells were exposed to 1.28 J/square centimeter of UVA.
After completion of the irradiation phase, the cell culture medium was drained, the cells refed with fresh growth medium and then re-incubated in the carbon dioxide incubator to allow for cell growth. After 4-5 days of growth the culture plates were removed from the incubator and the cell culture medium was drained. The cells were detached from the plates with trypsin and counted in a Coulter Counter. For control cells or for cells treated with test compounds, cell growth was determined as a percentage of control. […] This value is shown in Table I for a variety of phototherapeutics.

[2] = tested on: Aspergillus niger; experiment: Fungicidal assay, MIC against Aspergillus niger in MSY broth; type: cell-based; conditions: Table II, four days at 28° C, in the dark, no unit in table (ppm levels)
Protocol: The antifungal activities of compounds synthesized were measured by determining the inhibition of growth of Aspergillus niger in a standard liquid medium. The liquid growth medium is described as a solution of mineral salts and yeast extract (MSY). The MSY broth was prepared as described in ASTM G21-70, and amended with glucose (10 g/l) and yeast extract (1 g/l). An aliquot ([…]) of sterile medium was dispensed into each test well of a standard 96 well microplate (Corning No. 430247). Stock solutions of test compounds were prepared by dissolving the materials in 9:1 (v/v) solutions of acetone:methanol. Appropriate volumes of stock solutions were added to the test wells in order to achieve the desired ppm levels. Each test well (plus controls) was then inoculated with […] of a standardized suspension of Aspergillus niger. The cell suspension was prepared by suspending viable cells from a slant of potato dextrose agar into sterile, deionized water. The suspension was then adjusted to provide OD686 =0.28. This density contains approximately 2.5×10^7 CFU (colony forming units)/ml. The microplates were incubated in the dark for four days at 28° C. The optical density for each well at 686 nm was then recorded automatically using a SpectraMax 340 microplate reader (Molecular Devices Corp., Sunnyvale, Calif.). All wells were visually inspected in order to corroborate data from the instrument.
The antifungal activity was measured as minimum inhibitory concentrations or MIC of the 5'-substituted-4',5'-dihydropsoralens.

[3] = tested on: PAM 212 keratinocytes; experiment: PAM 212 keratinocyte growth inhibition (photo-toxicity with UVA / dark-toxicity without light); type: cell-based
[4] = tested on: Chlorella vulgaris; experiment: Algicidal assay, MIC against Chlorella in modified Allen's medium; type: cell-based; conditions: Table III, 14 days, 26 to 28° C, no unit in table (ppm)
Protocol: To assay the activity of the 5'-substituted-4',5'-dihydropsoralens of the invention against Chlorella, the Allen method (A. A. Allen, […], Journal of Phycology, 4, 1-4) was employed. […] The minimum inhibitory concentration (MIC) of the compounds tested against the fungus Aspergillus niger using an MSY broth is shown in Table II.
Test tubes containing modified Allen's medium were treated with increasing dosages of the compound to be tested and inoculated with a suspension of algal cells. After fourteen days of incubation, algal growth was rated as positive or negative. The minimum inhibitory concentration (MIC) of the compound is the smallest dosage showing negative algal growth.
The apparatus required consisted of sterilized test tubes, 18-150 mm and an incubator, capable of a constant (±2° C.) temperature within 26 to 28° C. The following procedure was used:
(1) Stock solutions (g/200 g deionized water each) were generated with: K2 HPO4, 1.50 g; MgSO4, 7H2 O, 1.50 g; Na2 CO3, 0.80 g; CaCl2 2H2 O, 0.50 g; Na2 SiO3 9H2 O, 1.16 g, and Citric acid, 1.20 g.
(3) The modified Allen's medium was prepared in a volumetric flask by the addition of 1.5 g NaNO3, 5.0 mL stock solution K2 HPO4, 5.0 mL stock solution MgSO4 -- 7H2 O, 5.0 mL Stock solution Na2 CO3, 10.0 mL stock solution CaCl2 2H2 O, 10.0 mL stock solution Na2 SiO3 9H2 O, 1.0 mL stock solution Citric acid and 1.0 mL stock solution PIV metal with enough deionized water to make 1000 mL of medium (Allen, 1968). The pH was adjusted to 7.8 and 5 mL of medium is added to each test tube. The tubes were sterilized in the autoclave for 20 minutes at 15 psi at 121° C. The test tubes were allowed to cool to 45-50° C. before adding the test compound and the inoculurn to the medium.
(4) The inoculum was a cell suspension from a 14-day-old culture of Chlorella vulgaris (UTEX 26, University of Texas) that was grown in modified Allen's medium.
The concentration of the stock solution in water or acetone of the compound to be tested is dependent on the largest dose required to be tested. Dilutions of the stock solution were made so that 100 μL of the stock solution of the corresponiding dilution was added per test tube. 100 μL of the solvent was added to the control to prepare the stock solution.
The inoculation consists of the addition of 100 μL of inoculurn per test tube.
The incubation of the control test tube and the test tubes containing compound and inoculum occurred in an incubator set between 26 to 28° C., with the temperature not varying more than ±2° C. Light was provided by plant growth fluorescent tubes and the test tubes were allowed to stand in the incubator for 14 days.
Rating of the test tubes containing different dosages of the compound will be positive or negative. […] If the medium in the rubes remains colorless, a negative (not contaminated) rating is given. The control is always positive. The minimum inhibitory concentration (MIC) of the compound is determined to be the smallest dosage showing negative algal growth.

[5] = tested on: Mycobacterium tuberculosis H37Rv; experiment: Antituberculosis primary in vitro screen, BACTEC 460; type: cell-based, Mycobacterium tuberculosis H37Rv ATCC 27294; conditions: Mycobacterium tuberculosis, H37RV; 12.5 μg/mL, 37° C; read-out: Anti-tubercular Activity (% inhibition)
[6] = Mus musculus, PAM212, light or radiation study

In the case of “4,8-dimethyl-5'-trifluoroacetomercurimethyl-4',5'-dihydropsoralen [R = H, T = Hg-O-COCF3]”, the IC50 [1] is reported as 4.2 µM, the MIC [2] is reported as 16 and the IC50 [3] is reported as 7 µM. The MIC [4] was 10.
`Cc1c(Br)c(=O)oc2c(C)c3c(cc12)CC(CI)O3` (stereo not shown) [R = Br, T = I, 3-Bromo-4,8-dimethyl-5'-iodomethyl-4',5'-dihydropsoralen] showed an IC50 [1, 6] of 0.48 µM and an inhibition at 12.5 µg/mL [5] of 25%.
With `Cc1c(Br)c(=O)oc2c(C)c3c(cc12)CC(CN1C(=O)c2ccccc2C1=O)O3` (stereo not shown) [R = Br, T = phthalimido] the IC50 [1, 6] was 3.9 µM.
Compound `Cc1c(Br)c(=O)oc2c(C)c3c(cc12)CC(C[n+]1ccccc1)O3` (stereo not shown) [R = Br, T = pyridinium iodide salt, 3-Bromo-4,8-dimethyl-5'-(N-pyridiniummethyl)-4',5'-dihydropsoralen Iodide Salt] has an IC50 [1, 6] of 1.6 µM.
`Cc1c(C#N)c(=O)oc2c(C)c3c(cc12)CC(CBr)O3` (stereo not shown) [R = CN, T = Br, 3-Cyano-4,8-dimethyl-5'-bromomethyl-4',5'-dihydropsoralen] gave an IC50 [1] of 6.4 µM.
With `CC(=O)[O][Hg][CH2]C1Cc2cc3c(C)c(C#N)c(=O)oc3c(C)c2O1` (stereo not shown) [R = CN, T = HgOAc, 3-Cyano-4,8-dimethyl-5'-acetomercurimethyl-4',5'-dihydropsoralen] the IC50 [1] was 20 µM and the IC50 [3] was 30 µM.
In the case of `Cc1c(C#N)c(=O)oc2c(C)c3c(cc12)CC(CI)O3` (stereo not shown) [R = CN, T = I, 3-Cyano-4,8-dimethyl-5'-iodomethyl-4',5'-dihydropsoralen], the IC50 [1, 6] is reported as 2.1 µM.
`Cc1c(C#N)c(=O)oc2c(C)c3c(cc12)CC(C[n+]1ccccc1)O3` (stereo not shown) [R = CN, T = pyridinium iodide salt, 3-Cyano-4,8-dimethyl-5'-(N-pyridiniummethyl)-4',5'-dihydropsoralen Iodide Salt] gave an IC50 [1, 6] of 1000 µM.
In the case of `Cc1c(F)c(=O)oc2c(C)c3c(cc12)CC(CBr)O3` (stereo not shown) [R = F, T = Br, 3-Fluoro-4,8-dimethyl-5'-bromomethyl-4',5'-dihydropsoralen], the IC50 [1] is reported as 4 µM.
`CC(=O)[O][Hg][CH2]C1Cc2cc3c(C)c(F)c(=O)oc3c(C)c2O1` (stereo not shown) [R = F, T = HgOAc, 3-Fluoro-4,8-dimethyl-5'-acetomercurimethyl-4',5'-dihydropsoralen] gave an IC50 [1] of 9.3 µM and an IC50 [3] of 14 µM.
Work on `Cc1c(F)c(=O)oc2c(C)c3c(cc12)CC(CI)O3` (stereo not shown) [R = F, T = I, 3-Fluoro-4,8-dimethyl-5'-iodomethyl-4',5'-dihydrofurocoumarin] yielded an IC50 [1, 6] of 62 µM and an inhibition at 12.5 µg/mL [5] of 31%.
Work on `Cc1cc(=O)oc2c(C)c3c(cc12)CC(CN1CC(C)OC(C)C1)O3` (stereo not shown) [R = H, T = 2,6-dimethylmorpholine, 4,8-Dimethyl-5'-(2,6-dimethylmorpholino)methyl-4',5'-dihydropsoralen] yielded an IC50 [1, 6] of 0.01 µM.
Compound `Cc1cc(=O)oc2c(C)c3c(cc12)CC(C)O3` (stereo not shown) [R = H, T = H, reference compound] has an IC50 [1, 6] of 0.27 µM.
With `Cc1cc(=O)oc2c(C)c3c(cc12)CC([CH2][Hg][Cl])O3` (stereo not shown) [R = H, T = HgCl, 4,8-Dimethyl-5'-chloromercurimethyl-4',5'-dihydropsoralen] the IC50 [1] was 6.1 µM, the MIC [2] was under 8 and the IC50 [3] was 15 µM. It also gave an MIC [4] of 10.
`Cc1cc(=O)oc2c(C)c3c(cc12)CC([CH2][Hg][I])O3` (stereo not shown) [R = H, T = HgI, 4,8-Dimethyl-5'-iodomercurimethyl-4',5'-dihydropsoralen] was tested, and the IC50 [1] was 1.3 µM, the MIC [2] was under 8 and the IC50 [3] was 4.2 µM. It also gave an MIC [4] of 9.
Work on `CC(=O)[O][Hg][CH2]C1Cc2cc3c(C)cc(=O)oc3c(C)c2O1` (stereo not shown) [R = H, T = HgOAc, 4,8-Dimethyl-5'-acetomercurimethyl-4',5'-dihydropsoralen] yielded an IC50 [1] of 4.8 µM, an MIC [2] of under 8 and an IC50 [3] of 6.2 µM. The MIC [4] was 10.
In the case of `Cc1cc(=O)oc2c(C)c3c(cc12)CC(CI)O3` (stereo not shown) [R = H, T = I, 4,8-Dimethyl-5'-iodomethyl-4',5'-dihydropsoralen], the IC50 [1, 6] is reported as 1.1 µM and the inhibition at 12.5 µg/mL [5] is reported as 24%.
`Cc1cc(=O)oc2c(C)c3c(cc12)CC(CN(CCO)CCO)O3` (stereo not drawn) [R = H, T = N(CH2 CH2 OH)2, 4,8-Dimethyl-5'-[N,N-β-(hydroxyethylamino)-methyl]-4',5'-dihydropsoralen] showed an IC50 [1, 6] of 0.31 µM.
With `Cc1cc(=O)oc2c(C)c3c(cc12)CC(CN(C)C)O3` (stereo not shown) [R = H, T = dimethyl amino iodide salt, 4,8-Dimethyl-5'-[(N,N-dimethylamino)methyl]-4',5'-dihydropsoralen Hydroiodide Salt] the IC50 [1, 6] was 0.1 µM and the inhibition at 12.5 µg/mL [5] was 4%.
`Cc1cc(=O)oc2c(C)c3c(cc12)CC(CN1CCOCC1)O3` (stereo not shown) [R = H, T = morpholino, 4,8-Dimethyl-5'-morpholinomethyl-4',5'-dihydropsoralen] showed an IC50 [1, 6] of 3.2 µM.
`Cc1cc(=O)oc2c(C)c3c(cc12)CC(C[n+]1ccccc1)O3` (stereo not shown) [R = H, T = pyridinium iodide salt, 4,8-Dimethyl-5'-(N-pyridiniummethyl)-4',5'-dihydropsoralen Iodide Salt] was tested, and the IC50 [1, 6] was 0.37 µM.
Work on `Cc1c(I)c(=O)oc2c(C)c3c(cc12)CC(CI)O3` (stereo not shown) [R = I, T = I, 3-Iodo-4,8-dimethyl-5'-iodomethyl-4',5'-dihydropsoralen] yielded an IC50 [1, 6] of 4.2 µM and an inhibition at 12.5 µg/mL [5] of 17%.
Work on `[Cl][Hg][CH2]C1Cc2ccccc2O1` (stereo not shown) [T = HgCl, 2-Chloromercurimethyl-2,3-dihydrobenzofuran] yielded an IC50 [1] of 5.9 µM, an MIC [2] of 24 and an IC50 [3] of 13 µM. The MIC [4] was 10.
Work on `CC(=O)[O][Hg][CH2]C1Cc2ccccc2O1` (stereo not shown) [T = HgOAc, 2-Acetomercurimethyl-2,3-dihydrobenzofuran] yielded an IC50 [1] of 6.1 µM, an MIC [2] of 16 and an IC50 [3] of 11 µM. The MIC [4] was 10.
